Several values for one entry are separate records, joined by “and”; a condition that tells them apart may be missing. Equal values may be shown once.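 Where inhibition never reached the appropriate level, the endpoint shown equals the highest concentration tested. Otherwise, values were interpolated linearly from a five-concentration, 48-hour dose response in 96-well plates. At the GI50, growth is halved.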 Activity calls are given as the source filed them. Cut-off read from the data, not from the text of the source: active = GI50 up to about 1.1 µM and inactive = higher.
Columns and labels:
Assay in all cases: inhibition of tumour cell growth, NCI panel, 48 h
KM12 = tested on: KM12
NCI-H226 = tested on: NCI-H226
MOLT-4 = tested on: MOLT-4
CCRF-CEM = tested on: CCRF-CEM
A498 = tested on: A498
EKVX = tested on: EKVX
SF-295 = tested on: SF-295
K562 = tested on: K562
M19-MEL = tested on: M19-MEL
XF498 = tested on: XF498
IGROV-1 = tested on: IGROV-1
KM-20L2 = tested on: KM-20L2
UACC-257 = tested on: UACC-257
786-0 = tested on: 786-0
Hs-578T = tested on: Hs-578T
MDA-N = tested on: MDA-N
DU-145 = tested on: DU-145
BT-549 = tested on: BT-549
MDA-MB-435 = tested on: MDA-MB-435
PC-3 = tested on: PC-3

Measured: GI50

O=C(NC(Cc1ccc(I)cc1)C(=O)O)c1ccc(I)cc1 (stereo unspecified)
inactive: KM12 > 100 µM | NCI-H226 > 100 µM | MOLT-4 51.5 µM | CCRF-CEM 48.2 µM | A498 > 100 µM | EKVX > 51.2 µM | SF-295 > 100 µM | K562 59.6 µM | M19-MEL 72.3 µM | XF498 > 66.4 µM | IGROV-1 > 24.4 µM | KM-20L2 > 94.8 µM | UACC-257 > 100 µM

CC1C(=O)C(C)C(c2cccs2)N(N=O)C1c1cccs1 (stereo unspecified)
inactive: KM12 > 100 µM | NCI-H226 > 100 µM | MOLT-4 > 100 µM | CCRF-CEM > 100 µM | EKVX > 100 µM | SF-295 > 100 µM | K562 > 80.5 µM | M19-MEL > 100 µM | XF498 14.8 µM | IGROV-1 > 100 µM | KM-20L2 > 100 µM | UACC-257 > 100 µM

O=C1CCCC(=O)N1CCc1c[nH]c2ccccc12
inactive: KM12 > 100 µM | NCI-H226 80.9 µM | MOLT-4 > 100 µM | CCRF-CEM > 100 µM | A498 77.3 µM | 786-0 > 100 µM | EKVX > 100 µM | SF-295 > 100 µM | K562 > 100 µM | M19-MEL > 100 µM | XF498 > 100 µM | IGROV-1 > 100 µM | KM-20L2 > 100 µM | UACC-257 > 100 µM

COc1cc(NC(C)CCCN)c2ncccc2c1 (stereo unspecified) [PRIMAQUINE PHOSPHATE]
inactive: KM12 > 81.5 µM and 73.3 µM | NCI-H226 > 68.5 µM and 97.9 µM | Hs-578T 39.4 µM | MOLT-4 25.2 µM and 39.4 µM | CCRF-CEM 26.7 µM and 45.8 µM | MDA-N 29.6 µM | EKVX > 66.1 µM and 77.3 µM | DU-145 99.1 µM | SF-295 98.2 µM and 52.4 µM | BT-549 41.1 µM | MDA-MB-435 38 µM | K562 28.9 µM and 20.9 µM | M19-MEL 47.5 µM | PC-3 33.6 µM | XF498 35 µM | IGROV-1 51.4 µM and > 88.7 µM | KM-20L2 57.5 µM

CC(NC(=O)C(C)NC(=O)C(N)CCP(C)(=O)O)C(=O)O (stereo unspecified)
inactive: KM12 > 100 µM | NCI-H226 > 100 µM | MOLT-4 > 100 µM | CCRF-CEM > 100 µM | A498 > 100 µM | EKVX > 100 µM | SF-295 > 100 µM | K562 > 100 µM | M19-MEL > 100 µM | XF498 > 100 µM | IGROV-1 > 100 µM | KM-20L2 > 100 µM | UACC-257 > 100 µM

COC(=O)N/N=C(/CC1(O)C(=O)Nc2ccc([N+](=O)[O-])cc21)c1ccccc1 (stereo unspecified)
inactive: KM12 34.4 µM | NCI-H226 40.9 µM | Hs-578T 20.8 µM | MOLT-4 24.5 µM | CCRF-CEM 29.6 µM | MDA-N 39.4 µM | A498 14 µM | 786-0 25.4 µM | EKVX > 54.1 µM | DU-145 > 100 µM | SF-295 17.5 µM | BT-549 38.5 µM | MDA-MB-435 20.8 µM | K562 40.7 µM | M19-MEL 66.5 µM | PC-3 38.8 µM | XF498 19.4 µM | IGROV-1 > 46.7 µM | KM-20L2 > 100 µM | UACC-257 42.4 µM

COc1ccccc1Cc1nc(-c2ccccc2)nn(C2OC(COC(C)=O)C(OC(C)=O)C(OC(C)=O)C2OC(C)=O)c1=S (stereo unspecified)
inactive: KM12 > 54.6 µM | NCI-H226 30.5 µM | MOLT-4 > 60 µM | CCRF-CEM > 100 µM | A498 10.2 µM | EKVX 25.1 µM | SF-295 8.15 µM | K562 > 58.3 µM | M19-MEL 32.7 µM | XF498 1.86 µM | IGROV-1 31.1 µM | KM-20L2 29.1 µM | UACC-257 54.3 µM

COc1ccc(/C=C2\CCNC2=O)cc1
inactive: KM12 > 100 µM | NCI-H226 > 100 µM | MOLT-4 > 100 µM | CCRF-CEM > 100 µM | A498 > 53.7 µM | EKVX > 29.4 µM | SF-295 > 100 µM | K562 > 100 µM | M19-MEL > 100 µM | XF498 > 100 µM | IGROV-1 > 100 µM | KM-20L2 > 100 µM | UACC-257 > 100 µM

CCCCCCCCC(O)c1ccc(/C=C\C(O)CCCC(=O)O)s1 (stereo unspecified)
inactive: KM12 > 100 µM | NCI-H226 > 100 µM | MOLT-4 > 100 µM | CCRF-CEM > 100 µM | 786-0 > 100 µM | EKVX > 100 µM | SF-295 > 100 µM | K562 > 100 µM | M19-MEL > 100 µM | XF498 > 100 µM | IGROV-1 > 100 µM | KM-20L2 > 100 µM | UACC-257 > 100 µM

COc1ccccc1C1C(Cl)C(=O)N1n1cnc2ccccc2c1=O (stereo unspecified)
inactive: KM12 > 100 µM | NCI-H226 > 100 µM | MOLT-4 > 100 µM | CCRF-CEM > 100 µM | 786-0 > 100 µM | EKVX > 100 µM | SF-295 > 100 µM | K562 > 100 µM | M19-MEL > 100 µM | XF498 > 100 µM | IGROV-1 > 100 µM | KM-20L2 > 100 µM | UACC-257 > 100 µM
